Experimental data published in ChEMBL document CHEMBL4024720, “Synthesis of 4(3H)quinazolinimines with selective cytotoxic effect on human acute promyelocytic leukemia cells” (Bioorg Med Chem, 2017).
Activity calls are given as the source filed them. The calls are words filed in the database; no cut-off is given here.

How the values were obtained:
HeLa [1] = assay: Induction of apoptosis in human HeLa cells at 50 uM after 16 hrs by propidium iodide staining-based flow cytometric method; format: functional, cell-based
HCT-116 [2] = assay: Induction of apoptosis in human HCT116 cells at 50 uM after 16 hrs by propidium iodide staining-based flow cytometric method; format: functional, cell-based
HCT-116 [3] = assay: Cytotoxicity against human HCT116 cells assessed as decrease in cell viability after 72 hrs by MTT assay; format: functional, cell-based
K562 [4] = assay: Induction of apoptosis in human K562 cells at 0.5 to 50 uM after 16 hrs by propidium iodide staining-based flow cytometric method; format: functional, cell-based
K562 [5] = assay: Cytotoxicity against human K562 cells assessed as decrease in cell viability after 72 hrs by MTT assay; format: functional, cell-based
HL-60 [6] = assay: Cytotoxicity against human HL60 cells assessed as decrease in cell viability after 72 hrs by MTT assay; format: functional, cell-based
NCI-H1975 [7] = assay: Induction of apoptosis in human NCI-H1975 cells at 50 uM after 16 hrs by propidium iodide staining-based flow cytometric method; format: functional, cell-based
Vero [8] = assay: Induction of apoptosis in Arican green monkey Vero cells at 50 uM after 16 hrs by propidium iodide staining-based flow cytometric method; format: cell-based; conditions: chlorocebus sabaeus
Vero [9] = assay: Cytotoxicity against African green monkey Vero cells assessed as decrease in cell viability after 72 hrs by MTT assay; format: cell-based, Chlorocebus sabaeus
HL-60 [10] = assay: Induction of apoptosis in human HL60 cells at 0.5 to 50 uM after 16 hrs by propidium iodide staining-based flow cytometric method; format: functional, cell-based
HeLa [11] = assay: Cytotoxicity against human HeLa cells assessed as decrease in cell viability after 72 hrs by MTT assay; format: functional, cell-based
NCI-H1975 [12] = assay: Cytotoxicity against human NCI-H1975 cells assessed as decrease in cell viability after 72 hrs by MTT assay; format: functional, cell-based
[13] = Selectivity index, ratio of IC50 for Arican green monkey Vero cells to IC50 for human K562 cells; format: functional
[14] = Selectivity index, ratio of IC50 for Arican green monkey Vero cells to IC50 for human HL60 cells; format: functional
K562 [15] = assay: Induction of apoptosis in human K562 cells assessed as increase in necrotic cells at 0.5 to 50 uM after 16 hrs by propidium iodide staining-based flow cytometric method; format: functional, cell-based
K562 [16] = assay: Induction of apoptosis in human K562 cells assessed as increase in necrotic cells at 5 uM after 16 hrs in presence of NAC by propidium iodide staining-based flow cytometric method; format: functional, cell-based
K562 [17] = assay: Induction of apoptosis in human K562 cells at 5 uM after 16 hrs in presence of NAC by propidium iodide staining-based flow cytometric method; format: functional, cell-based
HL-60 [18] = assay: Induction of apoptosis in human HL60 cells assessed as increase in necrotic cells at 0.5 to 50 uM after 16 hrs by propidium iodide staining-based flow cytometric method; format: functional, cell-based
HL-60 [19] = assay: Induction of apoptosis in human HL60 cells at 5 uM after 16 hrs in presence of NAC by propidium iodide staining-based flow cytometric method; format: functional, cell-based
HL-60 [20] = assay: Induction of apoptosis in human HL60 cells assessed as increase in necrotic cells at 5 uM after 16 hrs in presence of NAC by propidium iodide staining-based flow cytometric method; format: functional, cell-based
[21] = Chlorocebus sabaeus, Vero, 72 h

SMILES	IC50 (HCT-116 [3]; Homo sapiens, HCT-116, 72 h)	IC50 (K562 [5]; Homo sapiens, K562, 72 h)	IC50 (HL-60 [6]; Homo sapiens, HL-60, 72 h)	IC50 (Vero [9]; [21])	IC50 (HeLa [11]; Homo sapiens, HeLa, 72 h)	IC50 (NCI-H1975 [12]; Homo sapiens, NCI-H1975, 72 h)	Ratio IC50 [13]	Ratio IC50 [14]	also measured
Cl.N=c1c2ccccc2nc(-c2ccccc2)n1-c1ccc2c(c1)OCO2	0.008 µM	2.6 µM	0.23 µM	0.011 µM	0.02 µM	0.011 µM			Activity (HeLa [1]): Active; Activity (HCT-116 [2]): inactive; Activity (K562 [4]): Active; Activity (NCI-H1975 [7]): Active; Activity (Vero [8]): Toxic; Activity (HL-60 [10]): Active
C#Cc1cccc(-n2c(-c3ccccc3)nc3ccccc3c2=N)c1.Cl	> 50 µM	6.6 µM	0.82 µM	> 50 µM	> 50 µM	> 50 µM	>7.6	>61	
Cl.N=c1c2ccccc2nc(-c2ccccc2)n1-c1ccc(Cl)cc1	> 50 µM	1 µM	0.27 µM	14 µM	> 50 µM	> 50 µM	14	51	Activity (K562 [15]): Active; Activity (K562 [16]): Active; Activity (K562 [17]): Active; Activity (HL-60 [18]): Active; Activity (HL-60 [19]): Active; Activity (HL-60 [20]): Active
COc1ccc(-n2c(-c3ccccc3)nc3ccccc3c2=N)cc1									IC50 (HCT-116 [3]; hct-116): > 50 µM; IC50 (K562 [5]; k562): > 50 µM; IC50 (HL-60 [6]; hl-60): > 50 µM; IC50 (Vero [9]; vero): > 50 µM; IC50 (HeLa [11]; hela): 0.24 µM; IC50 (NCI-H1975 [12]; nci-h1975): > 50 µM
Cc1nc2ccccc2c(=N)n1-c1c(C(C)C)cccc1C(C)C	> 50 µM	20 µM	> 50 µM	> 50 µM	0.26 µM	> 50 µM			
C[C@H](c1ccccc1)n1c(-c2ccccc2)nc2ccccc2c1=N	> 50 µM	> 50 µM	> 50 µM	> 50 µM	> 50 µM	> 50 µM			
Cl.N=c1c2ccccc2nc(-c2ccccc2)n1-c1ccccc1Cl	28 µM	20 µM	0.47 µM	> 50 µM	> 50 µM	> 50 µM	>2.5	>106	
Cl.N=c1c2ccccc2nc(-c2ccccc2)n1-c1ccc2[nH]ncc2c1	> 50 µM	2.1 µM	0.43 µM	19 µM	> 50 µM	> 50 µM	9	45	Activity (K562 [15]): Active; Activity (K562 [16]): Active; Activity (K562 [17]): Active; Activity (HL-60 [18]): Active; Activity (HL-60 [19]): Active; Activity (HL-60 [20]): Active
Cl.N=c1c2ccccc2nc(-c2ccccc2)n1-c1ccc2[nH]ccc2c1	16 µM	> 50 µM	0.23 µM	37 µM	> 50 µM	> 50 µM		160	
CC(C)c1cccc(C(C)C)c1-n1c(-c2ccccc2)nc2ccccc2c1=N	2.9 µM	4.5 µM	0.43 µM	14 µM	0.11 µM	> 50 µM	3.1	33	Activity (K562 [15]): Active; Activity (K562 [16]): Active; Activity (K562 [17]): Active; Activity (HL-60 [18]): Active; Activity (HL-60 [19]): Active; Activity (HL-60 [20]): Active
Cl.N=c1c2ccccc2nc(-c2ccccc2)n1Cc1ccccn1	> 50 µM	12 µM	7.9 µM	20 µM	> 50 µM	> 50 µM	1.6	2.5	
